Several values for one entry are separate records, joined by “and”; a condition that tells them apart may be missing. Identical values can stand only once. Like-named read-outs stand apart in the source and are kept apart here.
What was measured:
Assay in all cases: biochemical
Assay type in all cases: biochemical
[1] = target: T1, hCA I (Homo sapiens, UniProt P00915)
T1 construct: from tissue; host or cells: fresh human erythrocytes
Protocol: (§1) CA activity was determined using the previously described spectrophotometric procedure of Verpoorte et al. as explained previously.[21] ^, [57] ^, [58] […] The quantity of protein was measured according to the previously described by Bradford method.[61–64] and bovine serum albumin was used as the standard.[65] ^, [66] After the purification method of the CA isoforms, samples were subjected to SDS polyacrylamide gel electrophoresis (SDS-PAGE).[67–69] […] The IC50 values were calculated from activity (%) against compounds inhibition.[72–74] Three various concentrations were used to calculate Ki values.[75–77]

[2] = target: T2, hCA II (Homo sapiens, UniProt P00918)
T2 construct: from tissue; host or cells: fresh human erythrocytes
Protocol: as §1

[3] = target: AChE (Homo sapiens, UniProt P22303); conditions: for AChE/BChE (proportion of AChE to BChE, selectivity): ratio of Ki AChE to Ki BChE
Protocol: (§2) Acetylthiocholine iodide (AChI) and butyrylthiocholine iodide (BChI) were used as substrates for the reaction. 5,5′-Dithio-bis(2-nitro-benzoic)acid (DTNB) was used for the measurement of the AChE/BChE activities. Briefly, 1.0 ml of Tris/HCl buffer (1.0 M, pH 8.0), and 10 µL of sample solution were dissolved in deionized water at different concentrations and 50 µL AChE/BChE solution were mixed and incubated for 10 min at 25 °C. Next 50 µL of DTNB (0.5 mM) was added. The reaction was then initiated by the addition of 50 µL of AChI or BChI.

[4] = target: BChE (Homo sapiens, UniProt P06276)
Protocol: as §2

[5] = purified from human erythrocytes, PNA substrate, 22 °C, read-out: IC50 hCA I
[6] = three concentrations used, read-out: Ki hCA I
[7] = purified from human erythrocytes, PNA substrate, 22 °C, read-out: IC50 hCA II
[8] = three concentrations used, read-out: Ki hCA II
[9] = Ellman, Tris/HCl pH 8.0, 25 °C, read-out: IC50 AChE
[10] = Ellman, Tris/HCl pH 8.0, 25 °C, read-out: IC50 BChE

Chain of AChE (P22303 32-614): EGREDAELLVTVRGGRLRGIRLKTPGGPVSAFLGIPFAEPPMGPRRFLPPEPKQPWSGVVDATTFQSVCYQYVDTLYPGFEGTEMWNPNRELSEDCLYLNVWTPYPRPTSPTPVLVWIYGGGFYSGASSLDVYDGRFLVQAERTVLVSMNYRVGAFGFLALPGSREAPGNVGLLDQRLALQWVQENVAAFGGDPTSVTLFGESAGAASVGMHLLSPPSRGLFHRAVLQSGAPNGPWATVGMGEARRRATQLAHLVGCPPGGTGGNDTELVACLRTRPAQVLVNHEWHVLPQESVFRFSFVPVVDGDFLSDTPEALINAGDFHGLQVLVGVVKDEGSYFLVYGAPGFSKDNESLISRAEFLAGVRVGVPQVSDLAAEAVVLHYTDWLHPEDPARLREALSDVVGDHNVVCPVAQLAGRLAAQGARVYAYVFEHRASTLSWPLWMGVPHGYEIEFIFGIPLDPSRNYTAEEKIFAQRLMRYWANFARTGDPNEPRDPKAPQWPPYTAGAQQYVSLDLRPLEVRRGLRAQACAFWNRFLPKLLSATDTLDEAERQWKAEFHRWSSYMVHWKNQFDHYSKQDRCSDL
T1 sequence (P00915 whole entry): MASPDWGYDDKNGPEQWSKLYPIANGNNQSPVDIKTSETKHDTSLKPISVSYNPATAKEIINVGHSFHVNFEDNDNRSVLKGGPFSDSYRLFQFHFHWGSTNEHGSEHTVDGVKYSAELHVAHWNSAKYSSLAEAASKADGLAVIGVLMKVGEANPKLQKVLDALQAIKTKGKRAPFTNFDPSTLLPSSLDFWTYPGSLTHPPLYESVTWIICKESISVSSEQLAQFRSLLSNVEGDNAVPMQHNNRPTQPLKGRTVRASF
Chain of BChE (P06276 29-602): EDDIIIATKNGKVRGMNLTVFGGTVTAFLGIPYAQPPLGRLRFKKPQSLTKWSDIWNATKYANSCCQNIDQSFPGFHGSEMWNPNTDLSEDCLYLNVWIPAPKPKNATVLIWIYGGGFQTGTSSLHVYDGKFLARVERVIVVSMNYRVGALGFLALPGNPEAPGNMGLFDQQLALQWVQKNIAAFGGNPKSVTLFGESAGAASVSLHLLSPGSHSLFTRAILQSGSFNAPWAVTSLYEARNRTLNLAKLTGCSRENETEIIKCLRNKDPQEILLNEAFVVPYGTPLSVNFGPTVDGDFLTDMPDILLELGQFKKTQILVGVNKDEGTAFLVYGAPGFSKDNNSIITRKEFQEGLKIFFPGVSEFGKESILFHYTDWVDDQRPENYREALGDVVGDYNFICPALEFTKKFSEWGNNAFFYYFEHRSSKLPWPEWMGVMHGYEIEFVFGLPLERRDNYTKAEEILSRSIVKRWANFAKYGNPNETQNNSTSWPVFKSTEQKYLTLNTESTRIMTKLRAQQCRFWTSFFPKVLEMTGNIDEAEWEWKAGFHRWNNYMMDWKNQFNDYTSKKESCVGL

| SMILES | IC50 [1, 5] [nM] | Ki [1, 6] [nM] | IC50 [2, 7] [nM] | Ki [2, 8] [nM] | IC50 [3, 9] [nM] | AChE/BChE (proportion of AChE to BChE, selectivity) [3] | Ki ([3]; read-out: Ki AChE) [nM] | IC50 [4] [nM] | Ki [4] [nM] | IC50 [4, 10] [nM] | Ki ([4]; read-out: Ki BChE) [nM] | fold of inhibitory activity against AChE/BChE than that of TAC ([3]; AChE/BChE selectivity relative to TAC) [fold] | IC50 [1] [nM] | Ki [1] [nM] | IC50 [2] [nM] | Ki [2] [nM] | IC50 [3] [nM] | Ki [3] [nM] |
| --- | --- | --- | --- | --- | --- | --- | --- | --- | --- | --- | --- | --- | --- | --- | --- | --- | --- | --- |
| CC(C)OCNc1nccs1 [Compound 16, 2-isopropoxymethylaminothiazole] | 156 | 132 ± 30 | 167 | 162 ± 29 | 76 | 0.763 | 42 ± 4 | 127 | 55 ± 12 |  |  |  |  |  |  |  |  |  |
| S=c1sc2ccccc2n1CN1CCCCC1 [Compound 4, N-Piperidinomethylbenzothiazoline-2-thione] | 86 | 86 ± 40 | 99 | 105 ± 25 | 36 | 0.439 | 18 ± 2 | 82 | 41 ± 13 |  |  |  |  |  |  |  |  |  |
| COCNc1nccs1 [Compound 17, 2-(methoxy)methylaminothiazole] | 142 | 157 ± 38 | 187 | 215 ± 40 | 80 | 1.285 | 54 ± 10 | 144 | 42 ± 20 |  |  |  |  |  |  |  |  |  |
| S=c1oc2ccccc2n1CN1CCOCC1 [Compound 8, N-morfolinomethylbenzoxazoline-2-thion] | 94 | 58 ± 15 | 119 | 121 ± 40 | 38 | 1.391 | 32 ± 6 |  |  | 48 | 23 ± 3 |  |  |  |  |  |  |  |
| COCCOCn1c(=S)oc2ccccc21 [Compound 14, N-(methoxyethoxy)methyl-benzoxazoline-2-thione] | 112 | 119 ± 53 | 128 | 142 ± 56 | 38 | 0.388 and 0.383 | 23 ± 4 | 68 | 60 ± 13 |  |  | 2.22 |  |  |  |  |  |  |
| CCN(CC)Cn1c(=S)oc2ccccc21 [Compound 6, N-diethylaminomethylbenzoxazoline-2-thione] | 102 | 123 ± 48 | 118 | 115 ± 28 | 44 | 1.500 | 45 ± 11 | 80 | 30 ± 3 |  |  |  |  |  |  |  |  |  |
| S=c1oc2ccccc2n1CN1CCOC1 [Compound 9, N-oxazolidinomethylbenzoxazoline-2-thione] | 103 | 76 ± 20 | 121 | 135 ± 33 | 62 | 0.975 | 78 ± 36 |  |  | 84 | 80 ± 9 |  |  |  |  |  |  |  |
| CC(C)OCn1c(=S)oc2ccccc21 [Compound 13, N-isopropoxymethylbenzoxazoline-2-thione] | 105 | 90 ± 23 | 122 | 94 ± 37 | 63 | 0.971 | 34 ± 5 | 83 | 35 ± 4 |  |  |  |  |  |  |  |  |  |
| COCCOCNc1nccs1 [Compound 15, 2-(methoxyethoxy) methylaminothiazole] | 128 | 118 ± 27 | 158 | 193 ± 79 | 43 | 0.555 | 25 ± 3 |  |  | 109 | 45 ± 14 |  |  |  |  |  |  |  |
| S=c1sc2ccccc2n1CN1CCOCC1 [Compound 1, N-oxazinomethylbenzothiazoline-2-thione] | 79 | 108 ± 35 | 104 | 81 ± 19 | 51 | 0.812 | 26 ± 5 |  |  | 88 | 32 ± 7 |  |  |  |  |  |  |  |
| CCN(CC)Cn1c(=S)sc2ccccc21 [Compound 5, N-diethylaminomethylbenzothiazoline-2-thione] |  |  |  |  |  | 0.666 |  | 83 | 51 ± 9 |  |  |  | 82 | 70 ± 15 | 98 | 100 ± 24 | 52 | 34 ± 9 |

Source: article PMC6445195, “Synthesis and biological evaluation of aminomethyl and alkoxymethyl derivatives as carbonic anhydrase, acetylcholinesterase and butyrylcholinesterase inhibitors” (Journal of Enzyme Inhibition and Medicinal Chemistry, 2017)
